Numbered stars: 1 amine (or outer) side, 2 acyl side, 3 side chain; on linkers, the order of the positions; unused ones are H or OH. Bridge positions count the residues as written; N and C are the ends. Square brackets hold non-standard residues; d marks the D form. Peptide text beside a SMILES is read from it. X3 = O=C([C@@](Cc1ccc(O)cc1)(N[*:1])[*:3])[*:2]; X5 = C[C@@H](O)[C@@](N[*:1])(C(=O)[*:2])[*:3]; X1 = C[C@@H](O)[C@](N[*:1])(C(=O)[*:2])[*:3]; X4 = O=C([C@](CO)(N[*:1])[*:3])[*:2]; X2 = C[C@](N[*:1])(C(=O)[*:2])[*:3]

Data on two compounds can be found in publication PMC12093266, “Synergistic action of two radical SAM enzymes in the biosynthesis of thuricin CD, a two-component sactibiotic” (Chemical Science, 2025).

For experiment [1], the system named is Bacillus cereus. Format: cell-based. The following applies: B. cereus in LB, 96-well plate, serial dilution, 30 °C, 16 h, OD600; lowest concentration with <10% OD increase over kanamycin well; HPLC-purified peptides in 30% isopropanol; '>' = no inhibition observed at that concentration. The method, then:
To test whether the thuricin CD variant obtained in E. coli was bioactive, we performed disk diffusion susceptibility tests with trnα′ and trnβ′ using Bacillus cereus as a test strain. […]
the elution fraction (1: 200 (v/v) ratio), and the resulting solution was then kept overnight for digestion at 4 °C. The resulting solution was heat-inactivated at 95 °C for 10 min followed by freezing at -80 °C for 1 h, and was subjected to centrifugation (13000 × g for 15 min at 4 °C) to remove any precipitates. The resulting solutions containing TrnA or TrnB were directly used in downstream analysis or frozen at -80 °C […]
Production of trnα’ and trnβ’
The modified TrnA and TrnB solutions were mixed with GluC (2 mg/ml stock solution) in a 50:1 (v/v) ratio and the proteolytic reaction was proceeded at room temperature for 2hr. The reaction mixture was subsequently quenched by methanol, and was lyophilized after centrifugation to remove any protein precipitate. The resulting sample was then dissolved in 30% isopropanol and injected onto a reverse phase Phenomenex Aeris PEPTIDE XB-C18 column (250 x 10 mm, 5 μm). […]
as a positive and negative controls, respectively. […] The OD600 was read on a SP-Max 2300A plate reader. […]

Experiment [2] has as its system Bacillus cereus. Kind of experiment: Disk diffusion susceptibility test. Format: cell-based. The conditions noted are these: 5 μL of 100 μM peptide (each) on filter paper, BHI agar, 30 °C, 15-20 h. In general terms: In agar diffusion tests the substance spreads into inoculated agar from a disc or well.
Experimental: In vitro susceptibility test
Briefly, the liquid Brain Heart Infusion (BHI) agar (3.2 % BHI, 1.5% agar) was cooled to 42 °C and seeded with 100 μL of dense overnight culture (approximately 10 8-109 CFU mL -1) of Bacillus cereus. […] Kanamycin and 30% isopropanol were used
Spot 4: 5 μL 0.1 mg/ml kanamycin; Spot 5: 5 μL 30% isopropanol.

Regarding `CC[C@H](C)[C@H](N)C(=O)NCC(=O)NCC(=O)N[C@@H](CC(N)=O)C(=O)N[C@@H](C)C(=O)N[C@@H](C)C(=O)N[C@H]1CS[C@](C(=O)N[C@@H](CC(C)C)C(=O)NCC(=O)O)([C@@H](C)O)NC(=O)[C@H](Cc2ccccc2)NC(=O)[C@H](C)NC(=O)[C@]2([C@@H](C)O)NC(=O)CNC(=O)[C@H](C(C)C)NC(=O)[C@H](CC(C)C)NC(=O)[C@]3(CO)NC(=O)CNC(=O)[C@H]([C@@H](C)CC)NC(=O)CNC(=O)[C@H](CCC(=O)O)NC(=O)[C@H](CO)NC(=O)[C@H]([C@@H](C)CC)NC(=O)[C@H](C(C)C)NC(=O)[C@H](CS3)NC(=O)[C@H](CO)NC(=O)CNC(=O)[C@H]([C@@H](C)CC)NC(=O)[C@H](CS2)NC(=O)CNC(=O)[C@H]([C@@H](C)CC)NC(=O)[C@H](C(C)C)NC1=O` [trnα′] (H-IGGNAACVIGCIGSCVISEGIG[X4]LVG[X1]AF[X5]LG-OH; thioether 7-30, 11-27, 15-23; N-terminus and C-terminus assumed), in the experiment on Bacillus cereus [1], the “minimal inhibition concentration (MIC)” value was above 50 µM. For the same compound, the “inhibition in disk diffusion test” value with Bacillus cereus [2] is on record as “no activity”.

Consider `CC(C)C[C@H](NC(=O)[C@H](Cc1ccccc1)NC(=O)[C@@]1(Cc2ccc(O)cc2)NC(=O)[C@H](CO)NC(=O)[C@H](C)NC(=O)[C@]2(C)NC(=O)[C@H](C)NC(=O)[C@H](Cc3ccccc3)NC(=O)[C@H](CCC(=O)O)NC(=O)[C@]3([C@@H](C)O)NC(=O)CNC(=O)[C@H](C(C)C)NC(=O)CNC(=O)CNC(=O)[C@H](CO)NC(=O)[C@H](C)NC(=O)[C@H](CC(C)C)NC(=O)[C@H](CS3)NC(=O)[C@H](C(C)C)NC(=O)[C@H]([C@@H](C)O)NC(=O)CNC(=O)[C@H](CS2)NC(=O)[C@H](C)NC(=O)CNC(=O)[C@H](C(C)C)NC(=O)[C@@H](NC(=O)[C@H](C)NC(=O)[C@@H](NC(=O)[C@H](Cc2c[nH]c3ccccc23)NC(=O)CNC(=O)CNC(=O)[C@@H](N)C(C)C)C(C)C)CS1)C(=O)O` [trnβ′] (H-VGGWVACVGACGTVCLASGGVG[X1]EFA[X2]AS[X3]FL-OH; thioether 7-30, 11-27, 15-23; N-terminus and C-terminus assumed), for which the “minimal inhibition concentration (MIC)” value in the experiment on Bacillus cereus [1] is above 50 µM. For the same compound, the “inhibition in disk diffusion test” value with Bacillus cereus [2] is given as “no activity”.
